Assays:
MIA rat model of OA = assay: MIA trial 2 digital Randall-Selitto test (daily tacrolimus 0.3 or 0.6 mg/kg i.p., curcumin 50 mg/kg p.o., fluocinolone 0.01 mg/kg s.c.; weekly clonidine 0.1 mg/kg s.c.); format: in vivo; conditions: day 21
Protocol: The digital Randall-Selitto (dRS) test is said to be a reliable and repeatable measure of neuropathic, bone, and inflammatory pain behavior in several different models, including those of arthritic or joint pain [29, 31, 32]. Baseline and posttreatment values were evaluated using a dRS test device (IITC Life Science, Woodland Hills, CA, USA). Animals were allowed to acclimate to the testing room before all experimentation and for a minimum of 30 minutes before testing. To ensure that their hind limbs were accessible, the animals were gently suspended in a restraint sling. The joint compression threshold was measured once at each time point for the ipsilateral and contralateral knee joints. Pressure was applied gradually over approximately 10 seconds to the medial and lateral aspects of the knee joint. Measurements were taken from the first observed behavior of vocalization, struggle, or withdrawal. A cutoff value of 600 g was used to prevent injury to the animal.
Following isoflurane anesthesia, 50 μl (2 mg) of MIA was injected into the synovial space of the left knee. Animals were randomly assigned to groups, and pain behavior was assessed 7, 14, 21, and 28 days following MIA injection and intervention using WB with the Stoelting incapacitance meter (trial 1) or the dRS test (trials 2 and 3). […] Animals received MIA treatment and then saline control or therapeutic. […] Histopathology was performed at each time point and at study termination. All studies were conducted in accordance with the International Association for the Study of Pain Guidelines and were approved by the Algos Therapeutics, Inc. Institutional Animal Care and Use Committee (IACUC) before initiation. Those running the studies were blind to the treatments. See Additional file 1 for further details.

MMT/MCLT rat model of OA = assay: MMT/MCLT trial 1 histopathology (same doses); format: in vivo; set-up: key to Tibial cartilage degeneration score, 3-zone total: sum of three tibial zone scores (each on 5-point scale); key to Total joint score w/o femur / Total joint score / Total joint score without femur: sum: cartilage degeneration scores + mean osteophyte score; conditions: for Bone score / Depth ratio any matrix change, mean / Depth ratio any matrix change, zone 2 / Tibial cartilage degeneration score, 3-zone total / Tibial cartilage degeneration score, zone 1 / Tibial cartilage degeneration score, zone 2 / Tibial cartilage degeneration score, zone 3 / Tibial cartilage degeneration width, significant / Tibial cartilage degeneration width, total / Tibial osteophyte measure / Tibial osteophyte score / Total joint score w/o femur: mean; for % decrease, bone score / % decrease, depth ratio mean / % decrease, depth ratio zone 2 / % decrease, femoral cartilage degeneration score / % decrease, osteophyte measure / % decrease, osteophyte score / % decrease, significant degeneration width / % decrease, tibial score 3-zone total / % decrease, tibial score zone 1 / % decrease, tibial score zone 2 / % decrease, tibial score zone 3 / % decrease, total degeneration width / % decrease, total joint score / % decrease, total joint score w/o femur: vs saline group
How it was run: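 Rat knee joints were sectioned in 200-μm steps and stained with toluidine blue. Tibial cartilage degeneration was scored on a 5-point scale in three zones and summed with femoral scores, plus osteophyte scores, to give a total joint score. Results were averaged over three sections.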

HeLa cells = assay: HeLa cell viability (CellTiter-Glo)
How it was run: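 HeLa cells with and without drug were tested for viability by CellTiter-Glo luminescence as a toxicity read-out. In the companion NF-κB reporter assay, cells co-transfected with NF-κB firefly and Renilla luciferase plasmids (8:1) were read by Dual-Glo 5 h later, normalized to viable cells and expressed as fold over unstimulated, untreated cells.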

[1] = tacrolimus 0.6 mg/kg, fluocinolone 10 μg/kg

## C=CC[C@@H]1/C=C(\C)C[C@H](C)C[C@H](OC)[C@H]2O[C@@](O)(C(=O)C(=O)N3CCCC[C@H]3C(=O)O[C@H](/C(C)=C/[C@@H]3CC[C@@H](O)[C@H](OC)C3)[C@H](C)[C@@H](O)CC1=O)[C@H](C)C[C@@H]2OC [Tacrolimus]
MIA rat model of OA; tacrolimus 0.3 mg/kg, other drugs single dose
  dRS, hours after dosing with significant difference: Pretrt^d
MIA rat model of OA; tacrolimus 0.6 mg/kg i.p.
  dRS, hours after dosing with significant difference: 1 h
MMT/MCLT rat model of OA; low or only dose
  Bone score: 2.63
  Depth ratio any matrix change, mean: 0.26
  Depth ratio any matrix change, zone 2: 0.07
  Tibial cartilage degeneration score, 3-zone total: 4.25
  Tibial cartilage degeneration score, zone 1: 2.75
  Tibial cartilage degeneration score, zone 2: 1.50
  Tibial cartilage degeneration score, zone 3: 0.00
  Tibial cartilage degeneration width, significant: 441.67 µm
  Tibial cartilage degeneration width, total: 1137.50 µm
  Tibial osteophyte measure: 370.83 µm
  Tibial osteophyte score: 2.38
  Total joint score w/o femur: 6.63
  % decrease, bone score: 19%
  % decrease, depth ratio mean: 29%
  % decrease, depth ratio zone 2: 59%
  % decrease, femoral cartilage degeneration score: 73%
  % decrease, osteophyte measure: 28%
  % decrease, osteophyte score: 39%
  % decrease, significant degeneration width: 39%
  % decrease, tibial score 3-zone total: 35%
  % decrease, tibial score zone 1: 36%
  % decrease, tibial score zone 2: 32%
  % decrease, tibial score zone 3: 100%
  % decrease, total degeneration width: 13%
  % decrease, total joint score: 42%
  % decrease, total joint score w/o femur: 37%
MMT/MCLT rat model of OA; [1]
  Bone score: 3.00
  Depth ratio any matrix change, mean: 0.22
  Depth ratio any matrix change, zone 2: 0.02
  Tibial cartilage degeneration score, 3-zone total: 3.63
  Tibial cartilage degeneration score, zone 1: 2.42
  Tibial cartilage degeneration score, zone 2: 1.21
  Tibial cartilage degeneration score, zone 3: 0.00
  Tibial cartilage degeneration width, significant: 325.00 μm
  Tibial cartilage degeneration width, total: 945.83 μm
  Tibial osteophyte measure: 370.00 μm
  Tibial osteophyte score: 2.38
  Total joint score w/o femur: 6.00
  % decrease, bone score: 8%
  % decrease, depth ratio mean: 40%
  % decrease, depth ratio zone 2: 87%
  % decrease, femoral cartilage degeneration score: 48%
  % decrease, osteophyte measure: 28%
  % decrease, osteophyte score: 39%
  % decrease, significant degeneration width: 55%
  % decrease, tibial score 3-zone total: 45%
  % decrease, tibial score zone 1: 44%
  % decrease, tibial score zone 2: 45%
  % decrease, tibial score zone 3: 100%
  % decrease, total degeneration width: 28%
  % decrease, total joint score: 43%
  % decrease, total joint score w/o femur: 43%
MMT/MCLT rat model of OA; tacrolimus 0.3 mg/kg
  % decrease, combined width severe+marked: 86%
  % decrease, combined width severe+marked+moderate: 88%
  % decrease, combined width severe+marked+moderate+mild: 33%
  % decrease, width of moderate collagen degeneration: 91%
  % decrease, width of severe collagen degeneration: 97%
  % increase, area of any cartilage matrix: 59%
MMT/MCLT rat model of OA; tacrolimus 0.3 mg/kg, fluocinolone 5 ug/kg
  % increase, area of viable cartilage matrix: 26%
MMT/MCLT rat model of OA; tacrolimus 0.6 mg/kg
  % decrease, combined width severe+marked: 99%
  % decrease, combined width severe+marked+moderate: 96%
  % decrease, combined width severe+marked+moderate+mild: 53%
  % decrease, width of marked collagen degeneration: 97%
  % decrease, width of severe collagen degeneration: 100%
  % decrease, width of total collagen degeneration: 19%
  % increase, area of any cartilage matrix: 69%
  % increase, width of normal collagen: 19%
MMT/MCLT rat model of OA; tacrolimus 0.6 mg/kg, fluocinolone 10 ug/kg
  % increase, area of viable cartilage matrix: 33%
HeLa cells
  Non-toxic concentrations: 0 to 49.6 M
